The nature of the data set: GHS categories as the set defines them, by LD50: 1 up to 5, 2 up to 50, 3 up to 300, 4 up to 2000, 5 above 2000 mg/kg. The conditions noted are these: rat; in vivo; po.

Molecules are shown by their SMILES.

In turn, `CC1CC(OC(=O)C(C)Oc2cccc(C(F)(F)F)c2)CC(C)(C)C1` (stereo unspecified) yielded a GHS category of 5.

In the case of `CCOP(OCC)c1ccccc1`, the GHS category is 5.

`Nc1c(I)c(C(=O)Cl)c(I)c(C(=O)Cl)c1I` gave a GHS category of 5.

The compound `O=C1OC(CN2CCCCC2)CC12CC(CN1CCCCC1)OC2=O` (stereo unspecified) returned a GHS category of 5. For `CC(C)=CCN(CC=C(C)C)CCC(C)(C#N)c1cccc2ccccc12` (stereo unspecified) the value was 4; for `S=C(SSSSSSC(=S)N1CCCCC1)N1CCCCC1`, 5. In the case of `CCCCCCCCCCCCCCCC(=O)NCC(=O)O`, the GHS category is 5. For `O=C1CCCCCN1SSN1CCCCCC1=O` the value was 5.

The compound `C=CC(C)(CCC=C(C)C)OC(=O)c1ccccc1` (stereo unspecified) came in with a GHS category of 5.

The compound `Clc1ccccc1-c1nc(-c2ccncc2)no1` returned a GHS category of 5. In turn, `CCOC[C@H]1CO[C@@](Cn2cncn2)(c2cc3cc(Cl)cc(Cl)c3o2)O1` registered a GHS category of 4. Under `C=CCN(C(C)=O)C(=O)Oc1cccc2c1OC(C)(C)O2` stands 4. Under `CCCCCCCCCCCCCCCC(=O)OC[C@H](O)[C@H]1OC(=O)C(O)=C1O` stands 5; under `CC(C)(C)C(=O)OCC(=O)c1ccccc1`, 5.

Compound `COc1ccccc1C(=O)NS(=O)(=O)c1ccc(C(=O)NC2CC2)cc1` displayed a GHS category of 5. For `CCCCNC1CC(C)(C)NC(C)(C)C1` the value was 4; for `CCCCCCCCCC(C)C=O` (stereo unspecified), 5. Under `N[C@@H](CSCC(=O)O)C(=O)O` stands 5. For `O=C(Nc1ccccc1SSc1ccccc1NC(=O)c1ccccc1)c1ccccc1` the value was 5; for `Cc1cc(=O)nc(C(C)(C)O)[nH]1`, 5. Regarding `CCOC(=O)CC(=O)N1CCSC1COc1ccccc1OC` (stereo unspecified), the GHS category amounted to 5.

Consider `CCCCCCCOC(C)=O`, for which the GHS category is reported as 5.

As for `O=C(O)CCC(=O)O`, the GHS category amounted to 5. In turn, `CSc1nnc(C(C)(C)C)c(=O)n1/N=C/C(C)C` yielded a GHS category of 5. Compound `CCN(CC)c1ccc(N)cc1` had a GHS category of 3. Under `CCCCCNC(=O)c1ccccc1` stands 5; under `Brc1c(Br)c(Br)c(OCCOc2c(Br)c(Br)c(Br)c(Br)c2Br)c(Br)c1Br`, 5; under `CCCCCCCSCCCCN1CCCCCC1=O`, 5. For `CCC(C)CCC(C)(CC)OC(C)=O` (stereo unspecified) the value was 5.

Consider `CC(C)C1CCCCC1`, for which the GHS category turned out to be 5.

`CCCC(=O)C(C)=O` yielded a GHS category of 5.

On to `Cc1cc(C)c(NC(=O)c2sc(N)nc2C)c(C)c1`, for which the GHS category was determined as 4. For `C[S+](C)CC[C@@H](N)C(=O)O` (racemic) the value was 5. `Cc1c(Cl)ccc(O)c1Cl` showed a GHS category of 5. Under `CCCCCCCCCCCCCCCc1cccc(OC(=O)c2ccccc2OC(N)=O)c1` stands 5; under `Nc1nc(=O)c2c(CCc3ccc(C(=O)O)cc3)c[nH]c2[nH]1`, 5; under `CC(C)=CCCC(C)=C1CC=C(C)CC1`, 5.

Take `CC(C)=CCC(C#N)(CCN(C)C)c1cccc2ccccc12` (stereo unspecified): the GHS category worked out at 4.

With `C[C@H]1[C@H](NC(=O)C(=NOC(C)(C)C(=O)O)c2csc(N)n2)C(=O)N1S(=O)(=O)O`, the GHS category was 5.

In the case of `CCCBr`, the GHS category was found to be 5. Under `CCOC(=O)C(=O)Nc1cc(OC)nc(OC)n1` stands 4; under `CC(C)=CCC(C#N)(CCN1CCOCC1)c1cccc2ccccc12` (stereo unspecified), 4. Under `Cc1cccc2c1NC(=O)C2(c1ccc(OS(=O)(=O)O)cc1)c1ccc(OS(=O)(=O)O)cc1` stands 5; under `Cc1onc(-c2ccccc2)c1C(=O)N[C@@H]1C(=O)N2[C@@H]1SC(C)(C)[C@@H]2C(=O)O`, 5; under `CCOCC(O)COc1ccc(NC(=O)CC[S+](C)C)cc1` (stereo unspecified), 5. Under `CN1COCN=C1N[N+](=O)[O-]` stands 4; under `O=CC1=C(C(Cl)(Cl)Cl)C(Cl)(Cl)C(O)C1(Cl)Cl` (stereo unspecified), 4.

For `Cc1c(C)c([N+](=O)[O-])c(C(C)(C)C)c([N+](=O)[O-])c1C`, the GHS category came out at 5.

As for `CC(C)(C)[C@H]1CC[C@H](O)CC1`, the GHS category came to 5. Under `O=C(O)c1nc(C(Cl)(Cl)Cl)n(-c2ccc(Cl)cc2Cl)n1` stands 5; under `Cc1c(OCC(F)(F)F)ccnc1CS(=O)c1nc2ccccc2[nH]1` (stereo unspecified), 5; under `CCCCC(CC)COC(=O)CC(CC(=O)OCC(CC)CCCC)(OC(C)=O)C(=O)OCC(CC)CCCC` (stereo unspecified), 5. For `O=[N+]([O-])c1ccc2c(c1)COP(=S)(N1CCCC1)O2` (stereo unspecified) the value was 3; for `O=C1NC(=O)C(N=NC2C(=O)NC(=O)NC2=O)C(=O)N1`, 5.

As for `COC(=O)CCCC(=O)OC`, the GHS category is listed as 5. Under `Cc1c(S(C)(=O)=O)ccc(C(=O)O)c1Cl` stands 5; under `CCCc1c(Cc2ccc(-c3ccccc3-c3nn[nH]n3)cc2)c(=S)nc2nc[nH]n12`, 4. For `CC(C)OC(=O)[C@@H](C)N(C(=O)c1ccccc1)c1ccc(F)c(Cl)c1` the value was 5; for `CC(=O)[C@H]1CC[C@H]2[C@@H]3C=CC4=CC(=O)CC[C@@]4(C)[C@@H]3CC[C@]12C`, 5; for `CCCCCCCC/C=C\CCCCCCCCCCCC(N)=O`, 5. With `Cc1cc2nc3c(=O)[nH]c(=O)nc-3n(C[C@H](O)[C@H](O)[C@H](O)CO)c2cc1C`, the GHS category is reported as 5. On to `CC(=O)Nc1ccc(C2=NN(C(C)=O)C(C)Cc3cc4c(cc32)OCO4)cc1` (stereo unspecified), for which the GHS category came to 4. For `CCCC(=O)c1ccc2c(c1)oc(=O)n2C` the value was 5. For `CCCCC(=O)O[C@]1(C(=O)CO)[C@@H](C)C[C@H]2[C@@H]3CCC4=CC(=O)C=C[C@]4(C)[C@@]3(F)[C@@H](O)C[C@@]21C` the value was 5; for `CCCCCC(=O)[Si](C)(C)C`, 5.

In turn, `CC(C)(C)c1ccc(C=O)cc1` registered a GHS category of 4. For `CCCOC(=O)Nc1nc(N2CC=CCC2)cc2nc(=O)on12` the value was 5; for `COC(=O)c1ccc(OC)cc1`, 5.

In the case of `CC(c1ccc(O)cc1)(c1ccc(O)cc1)c1ccc(O)cc1`, the GHS category is 5. Under `COC(=O)CCCCC(=O)OC` stands 5; under `CCCCC(CC)COC(=O)c1ccccc1O` (stereo unspecified), 5; under `CCCCCCCCCCCCC1=C(OC(C)=O)C(=O)c2ccccc2C1=O`, 5.

Compound `CON=C(C(=O)OC)c1ccccc1CON=C(C)c1cccc(C(F)(F)F)c1` showed a GHS category of 5.

`Cc1cccc(Nc2cc(Cl)nc(SCC(=O)NCCO)n2)c1C` showed a GHS category of 5. For `N[C@@H](Cc1c[nH]c2ccccc12)C(=O)O` the value was 5. With `CSc1nc2cc(Cl)ccc2o1`, the GHS category is 5. Under `O=C(c1ccccc1)c1cc([N+](=O)[O-])ccc1S(=O)(=O)NCCCN1CCOCC1` stands 4; under `CC(C)CC(=O)O[C@@H]1C[C@@H]2CC[C@@]1(C)C2(C)C` (racemic), 5. For `CCO[Si](CCCSSCCC[Si](OCC)(OCC)OCC)(OCC)OCC` the value was 5; for `COCCOC(=O)C(=O)Nc1nc(-c2ccccc2)cs1`, 5. As to `O=S(=O)(O)c1ccc(N2N=C(c3ccc(Cl)cc3)CC2c2ccccc2)cc1` (stereo unspecified), the GHS category turned out to be 5.

Take `C=CC(=O)OCCOCC(CC)(COCCOC(=O)C=C)COCCOC(=O)C=C`: the GHS category worked out at 5. For `CCCCCCCCCNP1(=S)OCc2cc([N+](=O)[O-])ccc2O1` (stereo unspecified) the value was 3.

In turn, `COC(=O)Cc1c(C(=O)OC)sc(N)c1C#N` showed a GHS category of 5.

In turn, `CCCCCCCC(=O)OOC(C)(C)C` gave a GHS category of 5. For `OC(Cn1ccnc1)c1ccc(CCc2ccccc2)cc1` (stereo unspecified) the value was 5; for `O=C1NC(=O)c2ccc3c4cccc5cccc(c6ccc1c2c63)c54`, 5. Under `CCOC(=O)c1c(CSc2ccccc2)n(C)c2cc(Br)c(O)c(CN(C)C)c12` stands 5; under `O=C1CCCCCN1C(=O)NCCCCCCNC(=O)N1CCCCCC1=O`, 5; under `C[C@@H]1[C@@H](c2ccc(Cl)cc2)SC(=O)N1C(=O)NC1CCCCC1` (single isomer, unassigned), 5. For `CC(=O)Nc1ccc2cc(S(=O)(=O)O)c(N=Nc3ccc(S(=O)(=O)CCOS(=O)(=O)O)cc3)c(O)c2c1` the value was 5; for `Cc1nc2ccccc2c(=O)n1-c1ccccc1C#N`, 4; for `C=C(C)CCC[C@H](C)CCOC(=O)Cc1ccccc1`, 5. `[C]`: the GHS category is given as 5. As for `Cl[Si](Cl)(C1CCCC1)C1CCCC1`, the GHS category came to 5.

For `OC1C(Cl)(Cl)C(=C(Cl)Cl)C(O)(C(Cl)Cl)C1(Cl)Cl` (stereo unspecified), the GHS category came out at 4.

In turn, `NC(N)=Nc1nc2c(s1)CN(C(=O)NC1CC1)CC2` had a GHS category of 4.

For the compound `CCOCCOC(=O)C(=O)Nc1nc(-c2ccccc2)cs1`, the GHS category amounted to 5. Under `Cn1c(=O)c2c(ncn2CC(=O)N2CCOCC2)n(C)c1=O` stands 5; under `CCCN(CCC)C(=O)C(CCC(=O)OCCOCCOC(=O)Cc1c(C)n(C(=O)c2ccc(Cl)cc2)c2ccc(OC)cc12)NC(=O)c1ccccc1` (stereo unspecified), 4; under `OCCN1CNC(=S)NC1`, 5. Under `CCCC(=O)c1ccc(N)c(O)c1` stands 5; under `Cn1c(=O)c2c([nH]c(=O)n2C)n(C)c1=O`, 5. `CCC1Nc2cc(Cl)c(S(N)(=O)=O)cc2S(=O)(=O)N1` (stereo unspecified): the GHS category was 5. For `Clc1ccc2oc(C3(Cn4cncn4)OCCCO3)cc2c1` the value was 4; for `Cc1cnc(C2=NC(=O)C(C)(C(C)C)N2)c(C(=O)O)c1` (stereo unspecified), 5.

Values taken from the CATMoS acute toxicity set (Mansouri et al. 2021).
